Measurements as given in publication PMC4197335, “Cancer-Selective Targeting of the NF-κB Survival Pathway with GADD45β/MKK7 Inhibitors” (Cancer Cell, 2014).
Values after ≈ are worked out from the molar mass of the structure shown.

Assays:
[1] = system: human mesenchymal stem cells (MSCs); assay: cells; details: read-out: IC50 (normal; MCSs); at 48 hr
From the text: (§1) Additional details are provided in Supplemental Experimental Procedures.
(§2) automated system (Becton Dick inson) and analyzed with FlowJo.

human PBMCs = assay: cells; details: read-out: IC50 (normal; PBMCs); at 48 hr
From the text: as §1, §2

[2] = system: mouse lymph node (LN) cells; assay: cells; details: read-out: IC50 (normal; lymph node cells); at 48 hr
From the text: as §1, §2

human BMSCs = assay: cells; details: read-out: IC50 (normal; BMSCs); at 48 hr
From the text: as §1, §2

[3] = system: CD138+ cells from WM patients; assay: cells; details: read-out: IC50 (WM; PCs (n= 2)); at 48 hr; mean ± SEM
From the text: as §1, §2

[4] = system: CD138+ cells from MM patients; assay: cells; details: read-out: IC50 (MM; PCs (n = 8)); at 48 hr; mean ± SEM
From the text: as §1, §2

tolerability in mice = assay: tolerability in mice
From the text: Table S6, related to Figure 7. Summary of the pharmacokinetic profiles of DTP3 and z-DTP2
PK Param enters Values Drug
Values denote means ± SD (n=3) or SEM (n=5), as indicated. MW , molecular

thermodynamic solubility = type: physicochemical; details: in PBS, pH 7.4, for 14 days at 37 °C
From the text: (§3) Pharmacophore Model Building
(§4) The pharmacophore predictive
(§5) Broad- Panel Kinase Profiling
(§6) according to in-house protocols therein.
(§7) Pharmacokinetic Anal yses
(§8) In vitro pharmacok inetic assays were […]

microsomal stability = type: in vitro ADME, human
From the text: as §3, §4, §5, §6, §7, §8

GST-hMKK7 = target: T1, GST-hMKK7 (Homo sapiens, UniProt O14733); assay: tryptophan fluorescence quenching analysis; type: binding; details: DTP3/MKK7 interaction
T1 construct: Full-length human (h)MKK7 was expressed as a protein fused to an N-terminal GST tag (GST-MKK7); made in house
T1 sequence (O14733 1-419): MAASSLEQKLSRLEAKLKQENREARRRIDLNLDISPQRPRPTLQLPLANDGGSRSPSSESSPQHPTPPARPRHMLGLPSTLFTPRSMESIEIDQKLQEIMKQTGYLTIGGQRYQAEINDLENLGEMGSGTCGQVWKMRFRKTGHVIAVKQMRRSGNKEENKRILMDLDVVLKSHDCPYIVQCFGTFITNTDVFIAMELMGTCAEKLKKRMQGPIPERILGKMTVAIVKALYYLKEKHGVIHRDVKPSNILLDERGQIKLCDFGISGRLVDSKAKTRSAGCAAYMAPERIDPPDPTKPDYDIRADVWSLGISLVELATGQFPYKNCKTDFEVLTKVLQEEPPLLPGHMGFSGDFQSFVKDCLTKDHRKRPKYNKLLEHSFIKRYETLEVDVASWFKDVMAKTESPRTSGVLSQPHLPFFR
Method: The stoichiometry and KD value of the DTP3/MKK7 interaction were determined by tryptophan fluorescence quenching analysis, after fitting the fluorescence data with a nonlinear regression algorithm, as described by [Williamson (2013)]. Additional details are provided in Supplemental Experimental Procedures, along with a description of the methods used for CD and MALDI-TOF mass spectrometry analyses and the pull-down of MKK7 from cells with DTP3.
Spectrofluorimetric Analyses
The stoichiometry of the interaction of DTP3 with MKK7 was determined by using tryptophan f luorescence quenching analysis. Spectra were acquired with a Cary Eclipse Spectrof luorimeter analyzer (Varian Inc.), equipped with Peltier thermostating system, and a 1- cm quartz cuvette. The analyses were carried out using 1. 25 μM of GST -hMKK7 or GST dissolved in 10 mM of phosphate buff er, pH 7.5, and increasing concentrations of DTP3 or control SCRB D-peptide dissolved in the same buffer. […] The fluorescence values recorded at 333 nm were extracted, transformed to -ΔFluorescence and, then, plotted against the peptide concentration.
Fluorescence data were f itted using a single- site binding model (equation 1): […]
binding, was a highly appropriate model to account for the measured f lorescence trends, resulting in a R square (R2) of 0.985 and a chi square (X2) of 1.436. […]

With `CC(=O)N[C@H](Cc1ccc(O)cc1)C(=O)N[C@H](CCCNC(=N)N)C(=O)N[C@H](Cc1ccccc1)C(N)=O` [DTP3, Ac-YRF-NH2] the IC50 [1] was > 100 µM, the IC50 (human PBMCs) was > 100 µM and the IC50 [2] was > 100 µM. For the same compound, the IC50 (human BMSCs) was > 100 µM, the IC50 [3] was > 10 µM and the IC50 [4] was 0.0282 ± 0.0001 µM. The “Toxicity - continual s.c. dosing (14.5 mg/kg/day for 28 days)” value (tolerability in mice; mice, osmotic pumps) was “no apparent toxicity”, the “Toxicity - single i.v. (10 mg/kg)” value (tolerability in mice; mouse, in vivo, iv, 10 mg/kg) was “no apparent toxicity” and the “Toxicity - oral (100 mg/kg)” value (tolerability in mice; mouse, in vivo, po, 100 mg/kg) was “no apparent toxicity”. For the same compound, the “Toxicity - single s.c. (10 mg/kg)” value (tolerability in mice; mouse, in vivo, sc, 10 mg/kg) was “no apparent toxicity”, the solubility thermodynamic (thermodynamic solubility) was 169 ± 7.53 mg/mL (≈ 322 mM) and the “microsomal stability (human)” value (microsomal stability) was 4.87 ± 1.24 µL/min/mg protein. For the same compound, the half-life (microsomal stability; human, microsomes, read-out: microsomal stability (human) t½) was 4.75 h and the Kd (GST-hMKK7) was 0.0648 ± 0.00622 µM.
